Series [1] in a line: Half life in rat plasma was determined. The series is classed as ADME, organism-based.
In series [2] the test system is F9. Put plainly: Cellular activity on the differentiation was quantified by measure of plasminogen activator in mouse embryonal teratocarcinoma F9 cells; NA means not active. Type of series: functional, cell-based.
The test system of series [3] is F9. The series is described as follows: Cellular activity on the differentiation was quantified by measure of plasminogen activator in mouse embryonal teratocarcinoma F9 cells. The series is classed as functional, cell-based.

As for `C[C@H](OC(=O)c1ccc(C(=O)O)cc1)c1ccc2c(c1)C(C)(C)CCC2(C)C`, the half-life – broadly, how long it takes for the measured level to halve – in series [1] was over 1440 min. Further, in series [2], the AC50 (usually the midpoint of the concentration-response curve, whichever way the signal moves) was “Not Active”.
Molecule `C[C@@H](OC(=O)c1ccc(C(=O)O)cc1)c1ccc2c(c1)C(C)(C)CCC2(C)C` had a half-life in series [1] of 360 min. In series [3], this molecule registered an AC50 of 300 nM.
For `CC(OC(=O)c1ccc(C(=O)O)cc1)c1ccc2c(c1)C(C)(C)CCC2(C)C` (stereo not drawn), in that order: over 360 min and 350 nM.
As to `CC1(C)CCC(C)(C)c2cc(COC(=O)c3ccc(C(=O)O)cc3)ccc21`, the half-life in series [1] is 138 min. Further, half-maximal activity in series [3] (AC50) was put at 140 nM.

The record behind these values is ChEMBL document CHEMBL1128619, “Chemoenzymatic synthesis of enantiomers of a new retinoid to investigate the role of chirality in the biological response” (Bioorg Med Chem Lett, 1995).
